Columns and labels:
[1] = system: target antigen-expressing cell line; assay: Jurkat NFAT-GFP assay, coculture with target cell lines expressing the respective target antigen (summary Table 10A); format: cell-based, human; parameters: key: The signs +/−, +, 2+ etc. after the name of the cell lines indicate the relative degree of positivity on the Jurkat-NFAT-GFP assay as measured by the % GFP positive cells; +: relative degree of positivity on the Jurkat-NFAT-GFP assay as measured by the % GFP positive cells; 2+: relative degree of positivity on the Jurkat-NFAT-GFP assay as measured by the % GFP positive cells; conditions: relative % GFP positive cells; for NFAT-GFP ASSAY Positive Cell lines: NALM6: SIR-expressing Jurkat-NFAT-GFP cells cocultured with NALM6
Method: (B) Induction of NFAT promoter driven GFP expression. The control vector- and SIR-expressing Jurkat-NFAT-GFP cocultured for 4-24 hours with the target antigen-expressing cell line (described above) and their ability to bind to the target antigen is assayed by measuring induction of GFP expression using Flow Cytometry. Cellular supernatant is collected and assayed for the induction of cytokines (e.g., IL2).
Jurkat NFAT-GFP Assay For Synthetic Immune Receptors. The Jurkat-NFAT-GFP cells are engineered in such a way that the IL-2 promoter, which carries NFAT binding sites, is cloned upstream of the GFP gene. These cells have been used to study signaling via TCR and CAR. The different SIRs were stably expressed in Jurkat NFAT-GFP cells by lentiviral mediated gene transfer, followed by selection with puromycin. The SIR-expressing Jurkat-NFAT-GFP cells were cocultured with the target cells at E:T ratio of approximately 1:2 for approximately 4 hours to 18 hours. When the interaction between SIRs and their target antigen results in activation of the NFAT pathway, GFP expression is induced.
Induction of GFP expression by coculturing of Jurkat-NFAT-GFP cells expressing different SIR constructs and the different target cells was studied essentially as described previously (Wu, Roybal, Puchner, Onuffer, & Lim, 2015). GFP expression was monitored by FACS analysis. A few representative examples of this assay are shown in the FIG. 13A-B. In panel A, control Jurkat-NFAT-GFP cells or those expressing SIRs targeting CD19 (clone ID 051716-I08), MPL (Clone ID: 040716-A07) and BCMA (Clone ID: 011116-A07) were incubated with RAJI (top), HEL (middle) or U266 (bottom) cells, respectively. […] In panel B, Jurkat cells expressing SIR targeting CDH6 (Clone ID: 051716-J05), CD276 (Clone ID: 050516-Q06) and Her2/neu (Clone ID: 050516-I03) were incubated with SKOV3 (top) and […] (middle and bottom) cells, respectively. […] The Jurkat-NFAT-GFP cells were engineered to express different SIRs targeting other antigens and the experiment repeated upon coculture with the target cells expressing their respective target antigen. The Jurkat-NFAT-GFP (parental) cells were used as control. The names of different SIRs, their SEQ ID NOs, component antigen binding domains and TCR chains can be determined by reference to Tables 7A-7H. A SIR is considered positive in the assay in case the SIR expressing Jurkat-NFAT-GFP cells show greater % GFP positive cells when cultured with the target cell line as compared to parental Jurkat-NFAT-GFP cells. […] The signs +/−, +, 2+ etc. after the name of the cell lines indicate the relative degree of positivity on the Jurkat-NFAT-GFP assay as measured by the % GFP positive cells after culture of the SIR expressing Jurkat-NFAT-GFP cells with that cell line. […] In addition, great diversity of response against the same target cell line is observed with Jurkat cells expressing SIRs containing different antigen binding domains targeting the same antigen (e.g., SIRs having antigen binding domains derived form different CD19 antibodies) even when the SIRs share the same TCR chains and linkers. Finally, Jurkat cells expressing SIRs targeting different antigens (e.g. CD19 vs CD20) show a diversitiy of response when exposed to the same target cell line. Thus, a diverse immune response can be generated against a single target cell by combining SIRs with different TCR chains, linkers, antigen binding domains and target specificity. Table 10A also summarizes the results of GLuc based T cell cytotoxicity assay observed with different SIRs when exposed to their target cell lines. […]

RAJI cells = assay: RAJI xenograft model of lymphoma in NSG mice (survival); format: in vivo
Method: In vivo efficacy of SIR targeting CD19. […] SIR constructs and Gluc-PAC-G07 control construct encoding non-secretory form of Guassia Luciferase. Approximately half the cells were selected with puromycin while the other half was expanded without puromycin selection. NSG mice (Jackson Lab) were sub-lethally irradiated at a dose of 175 cGy. Approximately 24 hours post irradiation (day 2), mice were injected with 2.5×10^4 RAJI cells via tail-vein. […] Control mice (n=5) received no T cells or uninfected T cells. Mice were given human IL2 (400 IU intraperitoneally) on alternate days till the death of all mice in control group.
Approximately half the cells were selected with puromycin while the other half was expanded without puromycin selection. NSG mice (Jackson Lab) were sub-lethally irradiated at a dose of 175 cGy. Approximately 24 hours post irradiation (day 2), mice were injected with 2.5×10^4 RAJI cells via tail-vein. […] Control mice (n=5) received no T cells or uninfected T cells. Mice were given human IL2 (400 IU intraperitoneally) on alternate days till the death of all mice in control group.
SIR construct. NSG mice (Jackson Lab) were sub-lethally irradiated at a dose of 175 cGy. Approximately 24 hours post irradiation (day 2), mice were injected with 2.5×10^4 RAJI cells via tail-vein. […] SIR encoding lentivirus. Control mice (n=5) were injected with 5 million uninfected T cells or given no T cells.
SIR constructs. […] SIR were included as controls. NSG mice (n=5) were sub-lethally irradiated at a dose of 175 cGy. 24 hours post irradiation (day 2), mice were injected with 2.5×10^4 RAJI cells via tail-vein. […] Mice were given human IL2 (400 IU i.p.) on alternate days till the death of all mice in control group.
Human peripheral blood T cells isolated using CD3 magnetic beads were infected with lentiviruses expressing the indicated SIR constructs targeting Lym1 and Lym2. On day 1, the NSG mice were sub-lethally irradiated at a dose of 175 cGy. 24 hours post irradiation (day 2), mice were injected with 25×10^3 Raji cells intravenously. On day 3, the mice were treated intravenously with 10 million indicated CAR-T cells. Beginning on day 4, mice were injected with human IL-2 i.p. at a dose of 400 IU/mice every alternate day after the injection CAR-T cells till the death of all mice in control group.

[2] = FIG. 17: 2.5×10^4 RAJI cells, 5 million T cells on day 3, human IL2 (400 IU i.p.) on alternate days

CD8SP-FMC63-vL-V5-[TCRb-S57C-opt1]-F-P2A-SP-FMC63-vH-Myc-[TCRa-T48C-opt1]-F-F2A-PAC [SEQ ID NO:900]
NFAT-GFP ASSAY Positive Cell lines: NALM6 [1]: RAJI(2+), NALM6(2+)
NFAT-GFP ASSAY Positive Cell lines: RAJI ([1]; SIR-expressing Jurkat-NFAT-GFP cells cocultured with RAJI): RAJI(2+), NALM6(2+)
Median Survival (RAJI cells; [2]): 28.0 days
Median Survival (RAJI cells; NSG mice, 2.5×10^4 RAJI cells via tail-vein, 5 million T cells on day 3, Table 13): 27 days
survival (in words) (RAJI cells; experiment of Table 13): conferred survival advantage

CD8SP-CD19Bu12-vL-V5-[TCRb-S57C-opt1]-F-P2A-SP-CD19Bu12-vH-Myc-[TCRa-T48C-opt1]-F-F2A-PAC [SEQ ID NO:1021]
NFAT-GFP ASSAY Positive Cell lines: NALM6 [1]: (2+)
Median Survival (RAJI cells; [2]): 51 days
